We go through one compound from patent US20160287534A1, “METHODS FOR REVERSING FIBROSIS” (The University of Connecticut, priority 2015, published 2016).

In this test the test system is LX-2 cells. In words: qRT-PCR of LX-2 cells transfected with scramble control or Smad3 siRNA. In kind it is cell-based. The protocol:
Total RNA extraction, cDNA synthesis, and qRT-PCR were conducted using a Bio-Rad CFX96 Real-Time system (Bio-Rad, Hercules, Calif.) as previously described (see Park et al. Nutr. Res. 2008, vol. 28, pp. 83-91; Rasmussen et al. J. Nutr. 2008, vol. 138, pp. 476-481). Gene sequences were obtained from the GenBank database and primers were designed using Beacon Designer (Premier Biosoft, Palo Alto, Calif.). Primer sequences are available (see supplemental table of Yang et al. Biochimica et Biophysica Acta 2015, vol. 1850, pp. 178-185).
LX-2 cells were transfected with either Silencer® Negative Control scrambled siRNA (Ambion, Invitrogen, Grand Island, N.Y.) or siGENOME SMARTpool SMAD3 siRNA (siGenome, Thermo Scientific, Logan, Utah) as described previously (see Angulo N. Engl. J. Med. 2002, vol. 346, pp. 1221-1231). Twenty four hours after the transfection, cells were pretreated with 25 μM ASTX for 12 h, after which they were stimulated by 2 ng/mL TGFβ1 for additional 12 h for subsequent qRT-PCR analysis.
For orientation: Real-time PCR tracks product formation cycle by cycle.

Structures are written as SMILES.

Regarding `CC1=C(/C=C/C(C)=C/C=C/C(C)=C/C=C/C=C(C)/C=C/C=C(C)/C=C/C2=C(C)C(=O)C(O)CC2(C)C)C(C)(C)CC(O)C1=O` (stereo not drawn) [ASTX, astaxanthin], for the setting “LX-2 cells transfected with scrambled control, 25 μM ASTX 12 h (FIG. 4)”, the “induction of fibrogenic genes by TGFβ1” value was “attenuated”. For the same compound, under “Smad3-deficient (siRNA) LX-2 cells”, the “expression of α-SMA” value was “minimal inhibitory effect”. In addition, for the setting “regardless of Smad3”, the “increase in TGFβ1 mRNA by TGFβ1 itself” value is “inhibited”.
